# Calls of active or inactive are those of the source.
# Tests used:
# [1] = NIH-3T3 fibroblast cytotoxicity, dose response, cytotoxicity control, cell-based, fluorescence, Alamar Blue, secondary assay (AID 2327); assay type: functional;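 also: NIH-3T3 mouse fibroblasts cultured with fluconazole at 8 µg/mL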
# [2] = fluconazole-exposed Candida albicans growth modulators – fluorescence, retest, confirmation (AID 2467); assay type: functional, cell-based
# [3] = biological target: T1, Protein RecA (Mycobacterium tuberculosis, UniProt P9WHJ3); test: Fluorescence Cell-Free Homogeneous Dose Retest to Identify Inhibitors of RecA-Intein Splicing Activity. [Related pubchem assays (depositor defined):AID2097, AID2223, AID489010, AID492950]; assay type: functional
# T1 sequence (P9WHJ3 whole entry): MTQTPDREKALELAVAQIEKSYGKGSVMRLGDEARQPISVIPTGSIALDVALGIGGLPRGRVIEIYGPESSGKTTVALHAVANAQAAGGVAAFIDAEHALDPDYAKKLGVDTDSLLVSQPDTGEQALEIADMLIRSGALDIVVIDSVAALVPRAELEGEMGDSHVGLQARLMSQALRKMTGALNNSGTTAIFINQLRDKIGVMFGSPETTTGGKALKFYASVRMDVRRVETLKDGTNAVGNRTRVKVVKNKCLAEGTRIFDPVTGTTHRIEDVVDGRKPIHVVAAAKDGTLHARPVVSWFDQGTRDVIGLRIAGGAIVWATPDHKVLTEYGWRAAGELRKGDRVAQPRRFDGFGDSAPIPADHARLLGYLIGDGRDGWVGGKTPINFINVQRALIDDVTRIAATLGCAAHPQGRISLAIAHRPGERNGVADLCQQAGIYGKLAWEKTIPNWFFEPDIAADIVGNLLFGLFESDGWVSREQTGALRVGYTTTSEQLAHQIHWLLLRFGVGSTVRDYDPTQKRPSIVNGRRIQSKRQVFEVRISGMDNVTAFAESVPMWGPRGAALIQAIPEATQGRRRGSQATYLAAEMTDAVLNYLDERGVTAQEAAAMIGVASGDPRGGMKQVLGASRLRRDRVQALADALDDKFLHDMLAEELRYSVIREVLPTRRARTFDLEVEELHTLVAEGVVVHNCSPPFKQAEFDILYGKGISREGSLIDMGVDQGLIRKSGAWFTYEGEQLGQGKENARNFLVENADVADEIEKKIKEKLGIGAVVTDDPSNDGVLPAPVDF
# [4] = biological target: T2, Zinc finger protein mex-5 (Caenorhabditis elegans, UniProt Q9XUB2); test: potency of MEX-5 RNA-binding blockers – biochemical, C. elegans, fluorescence polarization, dose response (AID 1960)
# T2 sequence (Q9XUB2 whole entry): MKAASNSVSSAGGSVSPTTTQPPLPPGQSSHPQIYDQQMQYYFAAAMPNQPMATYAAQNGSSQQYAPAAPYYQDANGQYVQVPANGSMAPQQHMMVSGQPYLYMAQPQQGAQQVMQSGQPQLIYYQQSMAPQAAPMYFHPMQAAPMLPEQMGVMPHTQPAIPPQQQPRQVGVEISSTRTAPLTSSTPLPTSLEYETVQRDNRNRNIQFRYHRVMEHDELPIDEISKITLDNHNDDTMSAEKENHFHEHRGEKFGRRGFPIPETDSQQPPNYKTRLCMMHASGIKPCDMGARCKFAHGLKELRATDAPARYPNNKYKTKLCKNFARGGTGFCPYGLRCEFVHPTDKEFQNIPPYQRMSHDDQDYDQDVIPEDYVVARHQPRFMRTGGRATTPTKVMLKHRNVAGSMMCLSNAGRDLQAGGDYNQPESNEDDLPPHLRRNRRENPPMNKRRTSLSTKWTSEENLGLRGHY
# [5] = biological target: T3, ORF 73 (Human herpesvirus 8, UniProt O40947); test: KSHV LANA DNA-binding disruption – biochemical, fluorescence polarization, cherry-picked samples, dose response (AID 504725); design: species or system Human gammaherpesvirus 8;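 also: fluorescence polarization of a labeled DNA duplex reporting LANA DNA binding; potency is for inhibitors that block LANA binding to the DNA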
# T3 sequence (O40947 whole entry): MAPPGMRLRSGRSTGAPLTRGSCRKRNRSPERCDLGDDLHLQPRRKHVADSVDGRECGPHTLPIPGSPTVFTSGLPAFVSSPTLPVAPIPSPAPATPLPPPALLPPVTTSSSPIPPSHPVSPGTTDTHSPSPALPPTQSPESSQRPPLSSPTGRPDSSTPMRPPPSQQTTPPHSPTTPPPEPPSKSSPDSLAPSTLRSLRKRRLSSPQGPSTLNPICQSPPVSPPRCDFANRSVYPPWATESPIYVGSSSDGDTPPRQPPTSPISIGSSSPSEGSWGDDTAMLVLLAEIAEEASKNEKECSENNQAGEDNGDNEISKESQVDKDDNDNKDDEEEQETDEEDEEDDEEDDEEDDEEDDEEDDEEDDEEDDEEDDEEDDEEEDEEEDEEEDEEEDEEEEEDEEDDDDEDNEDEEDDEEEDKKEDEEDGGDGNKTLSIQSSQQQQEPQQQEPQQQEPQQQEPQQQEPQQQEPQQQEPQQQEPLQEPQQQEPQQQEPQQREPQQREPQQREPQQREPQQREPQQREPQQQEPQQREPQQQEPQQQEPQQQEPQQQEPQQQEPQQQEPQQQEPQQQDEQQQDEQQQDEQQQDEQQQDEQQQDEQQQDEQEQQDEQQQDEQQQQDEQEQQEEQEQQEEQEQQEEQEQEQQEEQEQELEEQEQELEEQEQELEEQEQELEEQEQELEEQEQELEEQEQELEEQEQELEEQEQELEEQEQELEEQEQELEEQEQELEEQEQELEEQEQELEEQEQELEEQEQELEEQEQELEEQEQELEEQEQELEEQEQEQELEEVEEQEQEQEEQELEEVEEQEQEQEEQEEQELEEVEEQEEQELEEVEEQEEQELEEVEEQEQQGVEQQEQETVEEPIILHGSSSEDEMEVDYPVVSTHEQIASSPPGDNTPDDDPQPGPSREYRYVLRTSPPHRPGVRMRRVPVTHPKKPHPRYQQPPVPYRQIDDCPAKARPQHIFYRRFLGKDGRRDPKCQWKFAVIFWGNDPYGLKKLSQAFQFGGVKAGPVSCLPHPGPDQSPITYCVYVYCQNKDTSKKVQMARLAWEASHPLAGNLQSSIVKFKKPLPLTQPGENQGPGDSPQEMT
# [6] = biological target: Serine/threonine-protein kinase D2 (Homo sapiens, UniProt Q9BZL6); assay type: functional;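 also: measured against PRKD2 as one member of a kinome-wide kinase profiling panel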
# [7] = biological target: Ribosomal protein S6 kinase beta-1 (Homo sapiens, UniProt P23443); assay type: functional;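 also: measured as one member of a kinome-wide profiling panel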
# [8] = biological target: Casein kinase II subunit alpha (Homo sapiens, UniProt P68400); assay type: functional
# [9] = biological target: 3-phosphoinositide-dependent protein kinase 1 (Homo sapiens, UniProt O15530); assay type: functional;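 also: value comes from the Navigating the Kinome panel, PDPK1 member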
# [10] = biological target: Casein kinase I isoform alpha (Homo sapiens, UniProt P48729); assay type: functional
# [11] = biological target: Dual specificity tyrosine-phosphorylation-regulated kinase 1B (Homo sapiens, UniProt Q9Y463); test: Navigating the Kinome. Panel member name: DYRK1B; assay type: functional
# [12] = biological target: Cyclin-dependent kinase 9 (Homo sapiens, UniProt P50750); assay type: functional;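 also: value from the CDK9 entry of a kinome-spanning kinase panel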
# Sequence of Cyclin-dependent kinase 9 (P50750 whole entry): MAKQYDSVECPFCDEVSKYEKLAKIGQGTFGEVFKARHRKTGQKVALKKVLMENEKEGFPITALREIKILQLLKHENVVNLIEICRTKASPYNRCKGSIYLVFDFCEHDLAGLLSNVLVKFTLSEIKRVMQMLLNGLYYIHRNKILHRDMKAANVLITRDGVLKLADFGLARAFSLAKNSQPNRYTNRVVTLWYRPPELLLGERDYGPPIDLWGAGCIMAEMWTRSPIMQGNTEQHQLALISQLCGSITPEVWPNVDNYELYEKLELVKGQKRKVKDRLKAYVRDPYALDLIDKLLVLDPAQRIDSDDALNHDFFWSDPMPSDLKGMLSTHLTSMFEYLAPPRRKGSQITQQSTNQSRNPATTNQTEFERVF
# Sequence of Serine/threonine-protein kinase D2 (Q9BZL6 whole entry): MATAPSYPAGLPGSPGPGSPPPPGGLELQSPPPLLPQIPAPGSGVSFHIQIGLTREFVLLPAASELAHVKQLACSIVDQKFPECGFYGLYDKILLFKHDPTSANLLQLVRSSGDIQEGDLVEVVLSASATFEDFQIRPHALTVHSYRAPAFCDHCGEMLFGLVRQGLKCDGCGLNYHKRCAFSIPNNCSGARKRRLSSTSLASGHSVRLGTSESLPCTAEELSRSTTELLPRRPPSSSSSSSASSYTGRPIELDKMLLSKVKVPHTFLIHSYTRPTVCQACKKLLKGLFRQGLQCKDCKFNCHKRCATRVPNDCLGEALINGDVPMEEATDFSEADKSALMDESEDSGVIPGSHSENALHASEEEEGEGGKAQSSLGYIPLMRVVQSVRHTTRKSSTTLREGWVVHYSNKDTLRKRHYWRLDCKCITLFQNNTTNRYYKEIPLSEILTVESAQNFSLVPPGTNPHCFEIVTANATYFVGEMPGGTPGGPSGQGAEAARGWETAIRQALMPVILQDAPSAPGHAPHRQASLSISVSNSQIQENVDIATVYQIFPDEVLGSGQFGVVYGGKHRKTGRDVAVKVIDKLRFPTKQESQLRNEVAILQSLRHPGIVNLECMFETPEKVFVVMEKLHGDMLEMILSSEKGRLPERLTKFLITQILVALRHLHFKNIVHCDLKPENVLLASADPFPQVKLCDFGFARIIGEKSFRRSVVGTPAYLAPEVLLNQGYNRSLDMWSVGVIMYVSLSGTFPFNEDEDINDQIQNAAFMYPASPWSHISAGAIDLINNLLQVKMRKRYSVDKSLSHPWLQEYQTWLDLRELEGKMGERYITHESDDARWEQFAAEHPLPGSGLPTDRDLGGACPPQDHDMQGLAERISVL
# Sequence of Casein kinase I isoform alpha (P48729 whole entry, canonical isoform): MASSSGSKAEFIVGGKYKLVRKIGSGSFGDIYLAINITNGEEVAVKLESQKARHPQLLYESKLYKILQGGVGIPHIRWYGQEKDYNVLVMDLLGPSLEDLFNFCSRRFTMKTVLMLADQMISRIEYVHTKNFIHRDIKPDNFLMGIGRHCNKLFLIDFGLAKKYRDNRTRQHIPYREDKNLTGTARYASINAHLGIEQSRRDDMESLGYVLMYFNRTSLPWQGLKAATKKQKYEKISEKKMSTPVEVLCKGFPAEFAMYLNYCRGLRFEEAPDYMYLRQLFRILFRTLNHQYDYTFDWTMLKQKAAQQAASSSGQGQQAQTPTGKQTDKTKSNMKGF
# Sequence of Ribosomal protein S6 kinase beta-1 (P23443 whole entry): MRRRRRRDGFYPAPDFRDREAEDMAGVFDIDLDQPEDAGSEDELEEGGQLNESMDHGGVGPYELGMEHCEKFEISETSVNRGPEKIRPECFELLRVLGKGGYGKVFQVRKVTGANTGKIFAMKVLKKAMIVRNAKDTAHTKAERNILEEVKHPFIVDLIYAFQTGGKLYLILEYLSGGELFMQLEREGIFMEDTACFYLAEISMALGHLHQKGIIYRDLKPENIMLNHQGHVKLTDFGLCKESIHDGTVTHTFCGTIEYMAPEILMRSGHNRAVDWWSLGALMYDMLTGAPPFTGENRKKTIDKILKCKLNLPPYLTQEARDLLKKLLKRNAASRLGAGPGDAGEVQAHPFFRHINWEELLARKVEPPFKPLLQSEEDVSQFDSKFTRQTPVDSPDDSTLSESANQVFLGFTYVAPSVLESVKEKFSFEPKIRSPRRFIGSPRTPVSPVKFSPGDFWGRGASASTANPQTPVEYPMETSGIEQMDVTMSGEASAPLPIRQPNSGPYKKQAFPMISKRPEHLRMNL
# Sequence of Casein kinase II subunit alpha (P68400 whole entry): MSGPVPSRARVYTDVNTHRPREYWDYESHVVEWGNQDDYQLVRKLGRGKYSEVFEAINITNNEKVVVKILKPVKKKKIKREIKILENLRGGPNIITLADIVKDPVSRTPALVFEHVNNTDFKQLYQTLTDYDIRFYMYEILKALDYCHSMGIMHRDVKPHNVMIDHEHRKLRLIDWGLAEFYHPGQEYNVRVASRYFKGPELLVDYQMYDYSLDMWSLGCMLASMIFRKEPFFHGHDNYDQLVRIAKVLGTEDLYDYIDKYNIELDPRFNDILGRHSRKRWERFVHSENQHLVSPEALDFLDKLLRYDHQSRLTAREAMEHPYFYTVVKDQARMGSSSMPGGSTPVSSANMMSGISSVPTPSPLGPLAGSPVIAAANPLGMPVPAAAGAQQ
# Sequence of 3-phosphoinositide-dependent protein kinase 1 (O15530 whole entry, canonical isoform): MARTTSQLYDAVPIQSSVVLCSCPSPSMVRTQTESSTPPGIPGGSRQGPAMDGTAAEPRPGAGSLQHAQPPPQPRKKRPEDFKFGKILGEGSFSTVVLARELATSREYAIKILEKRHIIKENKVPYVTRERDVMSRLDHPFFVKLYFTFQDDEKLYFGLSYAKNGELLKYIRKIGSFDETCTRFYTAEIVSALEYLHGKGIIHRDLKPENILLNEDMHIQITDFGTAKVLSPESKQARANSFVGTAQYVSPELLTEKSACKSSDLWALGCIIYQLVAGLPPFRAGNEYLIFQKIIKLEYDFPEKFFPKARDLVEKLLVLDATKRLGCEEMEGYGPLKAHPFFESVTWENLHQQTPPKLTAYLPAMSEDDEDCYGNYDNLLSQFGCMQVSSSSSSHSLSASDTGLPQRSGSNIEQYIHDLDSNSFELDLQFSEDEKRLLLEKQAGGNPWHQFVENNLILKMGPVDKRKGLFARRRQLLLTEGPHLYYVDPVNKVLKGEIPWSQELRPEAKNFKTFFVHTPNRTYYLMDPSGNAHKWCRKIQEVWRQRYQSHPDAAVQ
# Sequence of Dual specificity tyrosine-phosphorylation-regulated kinase 1B (Q9Y463 whole entry): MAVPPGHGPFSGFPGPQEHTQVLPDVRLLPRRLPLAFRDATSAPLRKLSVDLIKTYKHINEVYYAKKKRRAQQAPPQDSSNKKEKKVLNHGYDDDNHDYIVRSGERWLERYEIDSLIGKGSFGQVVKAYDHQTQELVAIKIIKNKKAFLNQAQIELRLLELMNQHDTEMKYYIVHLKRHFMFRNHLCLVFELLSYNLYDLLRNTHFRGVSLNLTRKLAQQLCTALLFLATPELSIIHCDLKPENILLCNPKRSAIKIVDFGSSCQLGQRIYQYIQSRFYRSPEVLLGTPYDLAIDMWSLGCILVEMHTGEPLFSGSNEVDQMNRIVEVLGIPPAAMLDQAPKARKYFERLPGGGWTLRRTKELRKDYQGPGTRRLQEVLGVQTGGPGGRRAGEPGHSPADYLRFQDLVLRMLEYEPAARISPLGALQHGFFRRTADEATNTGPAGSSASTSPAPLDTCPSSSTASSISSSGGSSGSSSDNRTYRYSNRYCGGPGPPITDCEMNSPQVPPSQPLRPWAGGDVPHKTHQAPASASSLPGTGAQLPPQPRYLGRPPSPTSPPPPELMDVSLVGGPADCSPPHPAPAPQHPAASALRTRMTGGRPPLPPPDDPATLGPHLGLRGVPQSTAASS
structure (smiles),measurement,setting,value
O=C1C=C(NCc2ccccc2)c2ccccc2C1=O,EC50,[1],2.61 µM (inconclusive)
same,EC50,[2],1.84 µM (active)
same,EC50,[3],0.774 µM (active)
O=C(O)c1[nH]c2ccccc2c1C(c1cc(Cl)cc([N+](=O)[O-])c1O)c1c(C(=O)O)[nH]c2ccccc12,EC50,[4],9.16 µM (active)
same,AC50,[5],88.1 µM (active)
CCOC(=O)c1cn(-c2ccc(O)cc2C)c2cc(-c3ccncc3)ccc2c1=O,Ki,[6],> 10 µM (inactive)
same,Ki,[7],> 6.31 µM (inactive)
same,Ki,[8],> 6.31 µM (inactive)
same,Ki,[9],> 3.98 µM (inactive)
Cc1cc(=O)[nH]nc1-c1ccc(NC(=O)Nc2cc(C(F)(F)F)ccc2F)c(Cl)c1,Ki,[10],> 3.98 µM (inactive)
same,Ki,[11],> 2.51 µM (inactive)
same,Ki,[12],> 1.58 µM (inactive)
